From PubChem BioAssay AID330 (DTP/NCI, 2004) come the findings set out here.

Molecules are shown by their SMILES. “And” between values parts separate entries of the source, which are not always exact repeats. Equal values may be shown once. Inconclusive results and toxic doses are left out.

For this assay, the system named is P388 leukemia ip, CD2F1 mice, survival T/C. Put plainly: NCI In Vivo Anticancer Drug Screen. Data for tumor model P388 Leukemia (intraperitoneal) in CD2F1 (CDF1) mice. The note with it: endpoint: median survival time, higher = longer survival. Summed up: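 Mice carrying the transplanted tumor received test compound or vehicle. Survival was recorded in each group, and the value is the treated-group measurement divided by that of the vehicle-treated control group.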

The mark [1] stands for this setting: dose: 100.0 mg/kg/injection, schedule: Q01DX005 (ip), vehicle: saline with Tween-80.
Setting [2] is: dose: 200.0 mg/kg/injection, schedule: Q01DX005 (ip), vehicle: saline with Tween-80.
Where [3] appears, read: dose: 50.0 mg/kg/injection, schedule: Q01DX009 (ip), vehicle: saline with Tween-80.
Setting [4] is: dose: 100.0 mg/kg/injection, schedule: Q01DX009 (ip), vehicle: saline with Tween-80.
[5] abbreviates: dose: 200.0 mg/kg/injection, schedule: Q01DX009 (ip), vehicle: saline with Tween-80.
The mark [6] stands for this setting: dose: 50.0 mg/kg/injection, schedule: Q01DX005 (ip), vehicle: saline with Tween-80.
Where [7] appears, read: dose: 100.0 mg/kg/injection, schedule: Q04DX002 (ip), vehicle: Klucel (hydroxypropylcellulose) (HPC).
Where [8] appears, read: dose: 200.0 mg/kg/injection, schedule: Q04DX002 (ip), vehicle: Klucel (hydroxypropylcellulose) (HPC).
[9] abbreviates: dose: 60.0 mg/kg/injection, schedule: Q01DX005 (ip), vehicle: saline with Tween-80.
[10] abbreviates: dose: 120.0 mg/kg/injection, schedule: Q01DX005 (ip), vehicle: saline with Tween-80.
The mark [11] stands for this setting: dose: 100.0 mg/kg/injection, schedule: Q04DX003 (ip), vehicle: saline with Tween-80.

As for `O=[N+]([O-])/C=C/c1c[nH]c2c1ccc1ccccc12`, the T/C under setting [1] is 86 % of control and the T/C under setting [2] is 94 % of control.

On to `O=[N+]([O-])c1cc(C(F)(F)F)ccc1F`, for which the T/C runs as follows: (dose: 25.0 mg/kg/injection, schedule: Q01DX009 (ip), vehicle: Klucel (hydroxypropylcellulose) (HPC)) 106 % of control; (dose: 50.0 mg/kg/injection, schedule: Q01DX009 (ip), vehicle: Klucel (hydroxypropylcellulose) (HPC)) 106 % of control.

For `O=C(CSc1ncnc2nc[nH]c12)c1ccccc1`, the T/C is 90 % of control under setting [3], 100 % of control under setting [4] and 105 % of control under setting [5].

For `O=c1ccc2[n+]([O-])c3ccc(O)cc3oc-2c1`, the T/C was 95 % of control under setting [6] and 100 % of control under setting [1].

For the compound `CC12C3=CC=C4C=CC=C(c5ccccc5C1=CC=C3)C42C` (centres undefined), the T/C was 100 % of control (dose: 50.0 mg/kg/injection, schedule: Q04DX002 (ip), vehicle: Klucel (hydroxypropylcellulose) (HPC)); 111 % of control under setting [7]; 107 % of control under setting [8].

In the case of `CC1C(c2ccccc2)=NN(C)c2ccccc21` (centres undefined), the T/C under setting [9] was 97 % of control; the T/C under setting [10] is 102 % of control; the T/C (dose: 240.0 mg/kg/injection, schedule: Q01DX005 (ip), vehicle: saline with Tween-80) is 90 % of control.

With `FC(F)(c1nc2ccccc2[nH]1)C(F)(F)C(F)(F)c1nc2ccccc2[nH]1`, the T/C reads like this: under setting [6], 95 % of control; under setting [1], 89 % of control; under setting [2], 88 % of control.

As to `OCC1CCCC1CO` (centres undefined), the T/C is 106 % of control and 101 % of control under setting [6]; 105 % of control and 101 % of control under setting [1]; 100 % of control and 114 % of control under setting [2].

For the compound `c1ccc2c(c1)CC1ON3CCc4ccccc4C3C21` (centres undefined), the T/C is 97 % of control under setting [3], 94 % of control under setting [4] and 92 % of control under setting [5].

Take `CCC12OCCN1CCO2`: the T/C is 100 % of control (dose: 200.0 mg/kg/injection, schedule: Q01DX009 (ip), vehicle: water); 100 % of control (dose: 400.0 mg/kg/injection, schedule: Q01DX009 (ip), vehicle: water); 102 % of control (dose: 800.0 mg/kg/injection, schedule: Q01DX009 (ip), vehicle: water); 106 % of control (dose: 1600.0 mg/kg/injection, schedule: Q01DX009 (ip), vehicle: water).

With `Oc1ccc2ccccc2c1-c1c(OC(c2ccccc2)c2ccccc2)ccc2ccccc12`, the T/C is 102 % of control under setting [11]; 94 % of control (dose: 200.0 mg/kg/injection, schedule: Q04DX003 (ip), vehicle: saline with Tween-80); 102 % of control (dose: 400.0 mg/kg/injection, schedule: Q04DX003 (ip), vehicle: saline with Tween-80).

As to `COc1ccc2ccc3nonc3c2c1`, the T/C by setting is: under setting [6], 92 % of control; under setting [1], 99 % of control; under setting [2], 91 % of control.

With `CC(=O)c1c(-c2nc(=S)[nH]c(C)c2C(C)=O)nc(=S)[nH]c1C`, the T/C reads like this: (dose: 60.0 mg/kg/injection, schedule: Q01DX005 (ip), vehicle: Klucel (hydroxypropylcellulose) (HPC)) 106 % of control; (dose: 120.0 mg/kg/injection, schedule: Q01DX005 (ip), vehicle: Klucel (hydroxypropylcellulose) (HPC)) 100 % of control; (dose: 240.0 mg/kg/injection, schedule: Q01DX005 (ip), vehicle: Klucel (hydroxypropylcellulose) (HPC)) 90 % of control.

Consider `O=NN1CCN(N=O)CC1`, for which the T/C was 113 % of control (dose: 25.0 mg/kg/injection, schedule: Q01DX009 (ip), vehicle: saline with Tween-80); 109 % of control under setting [3]; 109 % of control (dose: 50.0 mg/kg/injection, schedule: Q04DX003 (ip), vehicle: saline with Tween-80); 104 % of control under setting [11].

Turning to `CCCCCCCCCCCCCCCC1C(N)C(=O)N(C)N1C` (centres undefined), the T/C was 86 % of control under setting [3] and 95 % of control under setting [4].

Regarding `COC(=O)/C=C1/Nc2c(n(C)c(=O)n(C)c2=O)NC1=O`, the T/C (dose: 100.0 mg/kg/injection, schedule: Q04DX003 (ip), vehicle: saline) is 107 % of control; the T/C (dose: 200.0 mg/kg/injection, schedule: Q04DX003 (ip), vehicle: saline) was 94 % of control; the T/C (dose: 400.0 mg/kg/injection, schedule: Q04DX003 (ip), vehicle: saline) was 99 % of control.

For `CN1CCN=C1c1ccc(NC(=O)c2ccc(C(=O)Nc3ccc(C4=NCCN4C)cc3)cc2)cc1`, the T/C is, setting by setting: (dose: 0.4 mg/kg/injection, schedule: Q01DX009 (ip), vehicle: saline with Tween-80) 108 % of control; (dose: 3.0 mg/kg/injection, schedule: Q01DX009 (ip), vehicle: saline with Tween-80) 150 % of control; (dose: 4.0 mg/kg/injection, schedule: Q01DX009 (ip), vehicle: saline) 166 % of control; (dose: 6.0 mg/kg/injection, schedule: Q01DX009 (ip), vehicle: saline with Tween-80) 204 % of control; (dose: 6.0 mg/kg/injection, schedule: Q01DX009 (ip), vehicle: saline) 187 % of control; (dose: 6.25 mg/kg/injection, schedule: Q04DX003 (ip), vehicle: saline with Tween-80) 118 % of control. The T/C (dose: 9.0 mg/kg/injection, schedule: Q01DX009 (ip), vehicle: saline) is 191 % of control.

As for `S=c1n(-c2ccc(Cl)cc2)c2nc3ccccc3nc(/c2=N\Nc2ccc(Br)cc2)n1-c1ccccn1`, the T/C under setting [6] was 101 % of control.

In the case of `Clc1ccc(-c2cc3cc4c(cc3[nH]2)Oc2ccccc2O4)cc1`, the T/C is, setting by setting: (dose: 17.5 mg/kg/injection, schedule: Q01DX009 (ip), vehicle: Klucel (hydroxypropylcellulose) (HPC)) 107 % of control; (dose: 35.0 mg/kg/injection, schedule: Q01DX009 (ip), vehicle: Klucel (hydroxypropylcellulose) (HPC)) 103 % of control; (dose: 70.0 mg/kg/injection, schedule: Q01DX009 (ip), vehicle: Klucel (hydroxypropylcellulose) (HPC)) 103 % of control.

On to `CN(C)CCCN1c2ccccc2CCc2ccccc21`, for which the T/C was 115 % of control under setting [9] and 109 % of control under setting [10].

Take `CC1(C)N=C(N)N=C(N)N1c1cccc(OCCCOc2ccccc2)c1`: the T/C was 101 % of control (dose: 12.5 mg/kg/injection, schedule: Q01DX001 (ip), vehicle: Klucel (hydroxypropylcellulose) (HPC)); 100 % of control (dose: 25.0 mg/kg/injection, schedule: Q01DX001 (ip), vehicle: Klucel (hydroxypropylcellulose) (HPC)); 102 % of control (dose: 50.0 mg/kg/injection, schedule: Q01DX001 (ip), vehicle: Klucel (hydroxypropylcellulose) (HPC)).

For the compound `O=C1C2=C3C(=CC4COC3O4)C3C4COC(O4)C(=O)C3C2C2COC1O2` (centres undefined), the T/C under setting [7] is 115 % of control; the T/C under setting [8] is 109 % of control; the T/C (dose: 400.0 mg/kg/injection, schedule: Q04DX002 (ip), vehicle: Klucel (hydroxypropylcellulose) (HPC)) was 115 % of control.

In the case of `COc1cc(=O)cc2n(c1=O)CCC2`, the T/C (dose: 60.0 mg/kg/injection, schedule: Q01DX005 (ip), vehicle: saline) was 94 % of control; the T/C (dose: 120.0 mg/kg/injection, schedule: Q01DX005 (ip), vehicle: saline) is 94 % of control; the T/C (dose: 240.0 mg/kg/injection, schedule: Q01DX005 (ip), vehicle: saline) is 92 % of control.

In the case of `CC(=O)OC(C(=O)OC1C[C@]2(O)C(OC(=O)c3ccccc3)C3[C@@]4(OC(C)=O)CO[C@H]4C[C@@H](OC(C)=O)[C@]3(C)C(=O)[C@@H](OC(C)=O)C(=C1C)C2(C)C)C(NC(=O)c1ccccc1)c1ccccc1` (some centres undefined), the T/C (dose: 5.0 mg/kg/injection, schedule: Q01DX009 (ip), vehicle: Klucel (hydroxypropylcellulose) (HPC)) was 99 % of control; the T/C (dose: 10.0 mg/kg/injection, schedule: Q01DX009 (ip), vehicle: Klucel (hydroxypropylcellulose) (HPC)) is 105 % of control; the T/C (dose: 20.0 mg/kg/injection, schedule: Q01DX009 (ip), vehicle: Klucel (hydroxypropylcellulose) (HPC)) was 100 % of control; the T/C (dose: 40.0 mg/kg/injection, schedule: Q01DX009 (ip), vehicle: Klucel (hydroxypropylcellulose) (HPC)) is 104 % of control.

As for `CCOc1cc2cc(/C=N/OCC3CO3)c(Cl)nc2cc1OCC` (centres undefined), the T/C (dose: 50.0 mg/kg/injection, schedule: Q01DX005 (ip), vehicle: suspension in saline) was 92 % of control; the T/C (dose: 100.0 mg/kg/injection, schedule: Q01DX005 (ip), vehicle: suspension in saline) was 92 % of control; the T/C (dose: 200.0 mg/kg/injection, schedule: Q01DX005 (ip), vehicle: suspension in saline) is 90 % of control.

Consider `Cc1ccc(SCC(=O)O)c(C)c1`, for which the T/C by setting is: under setting [3], 88 % of control; under setting [4], 88 % of control; under setting [5], 94 % of control; (dose: 400.0 mg/kg/injection, schedule: Q01DX009 (ip), vehicle: saline with Tween-80) 103 % of control.
